Measurements: patent publication US20220396569A1 (Carmot Therapeutics, Inc., priority 2021, published 2022)

Each compound was assayed against T1, human GLP-1 receptor (Homo sapiens, UniProt P43220) (assay: GLP-1R cAMP Assay (HitHunter cAMP accumulation)). Details: cAMP accumulation, CHO cells stably overexpressing human GLP-1 receptor, 30 min treatment; read-out: EC50.
T1 construct: expressed in transfected cells
Assay type: cell-based
Procedure: cAMP accumulation was measured in Chinese hamster ovary (CHO) cells stably overexpressing the human GLP-1 receptor using the HitHunter cAMP Assay for Small Molecules Kit (Eurofins). Briefly, cells were grown in Ham's F12 Nutrient Mix with 10% FBS, and lifted with Cell Dissociation Buffer, Enzyme free, PBS based (ThermoFisher). Cells were pelleted, and resuspended in Hank's buffered saline solution with 10 mM HEPES, and 625 μM 3-isobutyl-1-methylxanthine. The anti-cAMP antibody reagent was then added to cells at a 1:2 ratio and 5 μL of mixture was seeded in 384-well small volume white assay plates, at 10,000 cells/well. Cells were then treated with 50 nL compound using an ECHO 550 acoustic dispenser (Labcyte) in a 20-point dose response format in triplicate for 30 min. Cells were then lysed, and detection reagents added according to the manufacturer's protocol. After overnight incubation, luminescence was measured using a Perkin Elmer Envision plate reader. Dose response curves were analyzed using GraphPad Prism 9.0. […]

T1 sequence (P43220 24-463): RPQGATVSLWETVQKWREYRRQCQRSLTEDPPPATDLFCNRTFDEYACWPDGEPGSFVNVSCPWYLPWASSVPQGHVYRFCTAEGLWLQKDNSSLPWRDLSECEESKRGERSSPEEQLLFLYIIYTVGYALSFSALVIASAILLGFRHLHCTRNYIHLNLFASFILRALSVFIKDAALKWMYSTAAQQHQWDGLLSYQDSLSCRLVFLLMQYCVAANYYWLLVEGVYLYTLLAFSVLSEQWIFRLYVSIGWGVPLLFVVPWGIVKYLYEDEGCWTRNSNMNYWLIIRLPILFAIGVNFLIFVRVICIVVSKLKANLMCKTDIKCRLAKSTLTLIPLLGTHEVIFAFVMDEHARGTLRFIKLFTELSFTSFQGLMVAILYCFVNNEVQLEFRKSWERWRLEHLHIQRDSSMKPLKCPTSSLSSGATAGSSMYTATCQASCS

Row | SMILES | EC50 [nM]
1 | O=C(O)c1ccc2nc(CN3CC(Oc4cccc(COc5ccc(Cl)cc5Cl)c4)C3)n(Cc3ncco3)c2c1 [Compound 228, 2-[(3-{3-[(2,4-dichlorophenoxy)methyl]phenoxy}azetidin-1-yl)methyl]-1-[(1,3-oxazol-2-yl)methyl]-1H-1,3-benzodiazole-6-carboxylic acid] | < 50
2 | CCn1cncc1Cn1c(CN2CC(Cc3cccc4c3OC(C)(c3ccc(Cl)cn3)O4)C2)nc2ccc(C(=O)O)cc21 (stereo not shown) [Compound 185, 2-[(3-{[2-(5-chloropyridin-2-yl)-2-methyl-2H-1,3-benzodioxol-4-yl]methyl}azetidin-1-yl)methyl]-1-[(1-ethyl-1H-imidazol-5-yl)methyl]-1H-1,3-benzodiazole-6-carboxylic acid] | 50 to 500
3 | O=C(O)c1ccc2nc(CN3CC(Cc4ccnc(COc5ccc(Cl)cc5Cl)c4)C3)n(C[C@H]3CCOC3)c2c1 [Compound 180] | < 50
4 | N#Cc1ccc(OCc2nc(C3=CCN(Cc4nc5c(F)cc(C(=O)O)cc5n4CC4(CC(N)=O)CC4)C3)ccc2F)c(F)c1 [Compound 425, 1-{[1-(carbamoylmethyl)cyclopropyl]methyl}-2-[(3-{6-[(4-cyano-2-fluorophenoxy)methyl]-5-fluoropyridin-2-yl}-2,5-dihydro-1H-pyrrol-1-yl)methyl]-4-fluoro-1H-1,3-benzodiazole-6-carboxylic acid] | 50 to 500
5 | CCn1cncc1Cn1c(CN2C[C@@H](Oc3ccnc(COc4ccc(Cl)cc4Cl)c3)[C@@H]2C)nc2ccc(C(=O)O)cc21 [Compound 293, 2-{[(2S,3R)-3-({2-[(2,4-dichlorophenoxy)methyl]pyridin-4-yl}oxy)-2-methylazetidin-1-yl]methyl}-1-[(1-ethyl-1H-imidazol-5-yl)methyl]-1H-1,3-benzodiazole-6-carboxylic acid] | < 50
6 | CCn1cncc1Cn1c(CN2CCC(Cc3cccc4c3OC(C)(c3ccc(Cl)cn3)O4)CC2)nc2ccc(C(=O)O)cc21 (stereo not shown) [Compound 184, 2-[(4-{[2-(5-chloropyridin-2-yl)-2-methyl-2H-1,3-benzodioxol-4-yl]methyl}piperidin-1-yl)methyl]-1-[(1-ethyl-1H-imidazol-5-yl)methyl]-1H-1,3-benzodiazole-6-carboxylic acid] | < 50
7 | CCn1cncc1Cn1c(CN2C[C@@H](Oc3cccc(COc4ccc(Cl)cc4Cl)c3)[C@@H]2C)nc2ccc(C(=O)O)cc21 [Compound 234, 2-{[(2S,3R)-3-{3-[(2,4-dichlorophenoxy)methyl]phenoxy}-2-methylazetidin-1-yl]methyl}-1-[(1-ethyl-1H-imidazol-5-yl)methyl]-1H-1,3-benzodiazole-6-carboxylic acid] | < 50
8 | O=C(O)c1ccc2nc(CN3CC(Oc4cccc(COc5ccc(Cl)cc5Cl)c4)C3)n(Cc3ccno3)c2c1 [Compound 237, 2-[(3-{3-[(2,4-dichlorophenoxy)methyl]phenoxy}azetidin-1-yl)methyl]-1-[(1,2-oxazol-5-yl)methyl]-1H-1,3-benzodiazole-6-carboxylic acid] | < 50
9 | N#CCC1(Cn2c(Cc3ccc(Oc4cccc(COc5ccc(C#N)cc5F)n4)cc3F)nc3c(F)cc(C(=O)O)cc32)CC1 [Compound 469, 2-{[4-({6-[(4-cyano-2-fluorophenoxy)methyl]pyridin-2-yl}oxy)-2-fluorophenyl]methyl}-1-{[1-(cyanomethyl)cyclopropyl]methyl}-4-fluoro-1H-1,3-benzodiazole-6-carboxylic acid] | < 50
10 | O=C(O)c1ccc2nc(CN3CCC(c4nc(COc5ccc(Cl)cc5F)ccc4F)C3)n(C[C@@H]3CCO3)c2c1 (stereo partly drawn) [Compound 456, 2-[(3-{6-[(4-chloro-2-fluorophenoxy)methyl]-3-fluoropyridin-2-yl}pyrrolidin-1-yl)methyl]-1-{[(2S)-oxetan-2-yl]methyl}-1H-1,3-benzodiazole-6-carboxylic acid] | < 50
11 | N#Cc1ccc(OCc2cccc([C@@H]3CCN(Cc4nc5ccc(C(=O)O)cc5n4C[C@@H]4CCO4)C3)c2)c(F)c1 [Compound 414, 2-{[(3S)-3-{3-[(4-cyano-2-fluorophenoxy)methyl]phenyl}pyrrolidin-1-yl]methyl}-1-{[(2S)-oxetan-2-yl]methyl}-1H-1,3-benzodiazole-6-carboxylic acid] | < 50
12 | N#Cc1ccc(OCc2ccc(F)c(C3=CCN(Cc4nc5ccc(C(=O)O)cc5n4C[C@@H]4CCO4)C3)n2)c(Cl)c1 [Compound 458, 2-[(3-{6-[(2-chloro-4-cyanophenoxy)methyl]-3-fluoropyridin-2-yl}-2,5-dihydro-1H-pyrrol-1-yl)methyl]-1-{[(2S)-oxetan-2-yl]methyl}-1H-1,3-benzodiazole-6-carboxylic acid] | < 50
13 | N#CCC1(Cn2c(CN3CC[C@@H](c4ccnc(COc5ccc(Cl)cc5F)c4)C3)nc3c(F)cc(C(=O)O)cc32)CC1 [Compound 432, 2-{[(3S)-3-{2-[(4-chloro-2-fluorophenoxy)methyl]pyridin-4-yl}pyrrolidin-1-yl]methyl}-1-{[1-(cyanomethyl)cyclopropyl]methyl}-4-fluoro-1H-1,3-benzodiazole-6-carboxylic acid] | < 50
14 | O=C(O)c1ccc2nc(CN3CCC(c4cc(COc5ccc(Cl)cc5F)ccc4F)C3)n(C[C@@H]3CCO3)c2c1 (stereo partly drawn) [Compound 419, 2-[(3-{5-[(4-chloro-2-fluorophenoxy)methyl]-2-fluorophenyl}pyrrolidin-1-yl)methyl]-1-{[(2S)-oxetan-2-yl]methyl}-1H-1,3-benzodiazole-6-carboxylic acid] | < 50
15 | N#Cc1ccc(OCc2nc([C@@H]3CCN(Cc4nc5ccc(C(=O)O)cc5n4C[C@@H]4CCO4)C3)ccc2F)c(F)c1 (single isomer, unassigned) [Compound 518] | < 50

More lines, now with the values ahead:

Row | EC50 [nM] | SMILES
16 | < 50 | O=C(O)c1ccc2nc(CN3CC=C(c4cccc(COc5ccc(Cl)cc5Cl)n4)C3)n(C[C@@H]3CCO3)c2c1 [Example 384, (S)-2-((3-(6-((2,4-Dichlorophenoxy)methyl)pyridin-2-yl)-2,5-dihydro-1H-pyrrol-1-yl)methyl)-1-(oxetan-2-ylmethyl)-1H-benzo[d]imidazole-6-carboxylic acid]
17 | < 50 | O=C(O)c1ccc2nc(CN3CCC(c4cccc(COc5ccc(Cl)cc5Cl)n4)C3)n(C[C@@H]3CCO3)c2c1 (stereo partly drawn) [Example 386, 2-((3-(6-((2,4-Dichlorophenoxy)methyl)pyridin-2-yl)pyrrolidin-1-yl)methyl)-1-(((S)-oxetan-2-yl)methyl)-1H-benzo[d]imidazole-6-carboxylic acid]
18 | < 50 | O=C(O)c1cc(F)c2nc(Cc3cc(F)c(Oc4ccnc(COc5ccc(Cl)cc5F)c4)cc3F)n(C[C@@H]3CCO3)c2c1 [Compound 538, 2-{[4-({2-[(4-chloro-2-fluorophenoxy)methyl]pyridin-4-yl}oxy)-2,5-difluorophenyl]methyl}-4-fluoro-1-{[(2S)-oxetan-2-yl]methyl}-1H-1,3-benzodiazole-6-carboxylic acid]
19 | < 50 | CCn1cncc1Cn1c(CN2CC(Cc3cnc(COc4ccc(Cl)cc4Cl)o3)C2)nc2ccc(C(=O)O)cc21 [Example 147, 2-((3-((2-((2,4-Dichlorophenoxy)methyl)oxazol-5-yl)methyl)azetidin-1-yl)methyl)-1-((1-ethyl-1H-imidazol-5-yl)methyl)-1H-benzo[d]imidazole-6-carboxylic acid]
20 | < 50 | O=C(O)c1ccc2nc(CN3CC=C(c4cc(COc5ccc(Cl)cc5Cl)ccn4)C3)n(Cc3cnco3)c2c1 [Example 390, 2-((3-(4-((2,4-Dichlorophenoxy)methyl)pyridin-2-yl)-2,5-dihydro-1H-pyrrol-1-yl)methyl)-1-(oxazol-5-ylmethyl)-1H-benzo[d]imidazole-6-carboxylic acid]
21 | < 50 | N#Cc1ccc(OCc2nc([C@]34C[C@H]3CN(Cc3nc5c(F)cc(C(=O)O)cc5n3C[C@@H]3CCO3)C4)ccc2F)c(F)c1 [Compound 532, 2-{[(lR,5R)-1-{6-[(4-cyano-2-fluorophenoxy)methyl]-5-fluoropyridin-2-yl}-3-azabicyclo[3.1.0]hexan-3-yl]methyl}-4-fluoro-1-{[(2S)-oxetan-2-yl]methyl}-1H-1,3-benzodiazole-6-carboxylic acid]
22 | > 500 | N#Cc1ccc(OCc2nc(N3CCN(Cc4nc5ccc(C(=O)O)cc5n4C[C@@H]4CCO4)C3=O)ccc2F)c(F)c1 [Compound 535, (S)-2-((3-(6-((4-Cyano-2-fluorophenoxy)methyl)-5-fluoropyridin-2-yl)-2-oxoimidazolidin-1-yl)methyl)-1-(oxetan-2-ylmethyl)-1H-benzo[d]imidazole-6-carboxylic acid]
23 | < 50 | O=C(O)c1cc(F)c2nc(Cc3ccc(Oc4ccnc(COc5ccc(Cl)cc5F)c4)c(F)c3)n(C[C@@H]3CCO3)c2c1 [Example 471, (S)-2-(4-((2-((4-Chloro-2-fluorophenoxy)methyl)pyridin-4-yl)oxy)-3-fluorobenzyl)-4-fluoro-1-(oxetan-2-ylmethyl)-1H-benzo[d]imidazole-6-carboxylic acid]
24 | < 50 | O=C(O)c1ccc2nc(CN3CC[C@@H](c4cccc(COc5ccc(Cl)cc5Cl)c4)C3)n(C[C@@H]3CCO3)c2c1 (single isomer, unassigned) [Example 405]
25 | < 50 | N#Cc1ccc(OCc2nc(C34CC3CN(Cc3nc5ccc(C(=O)O)cc5n3C[C@@H]3CCO3)C4)ccc2F)c(F)c1 (mixture of isomers) [Example 522, 2-((1-(6-((4-Cyano-2-fluorophenoxy)methyl)-5-fluoropyridin-2-yl)-3-azabicyclo[3.1.0]hexan-3-yl)methyl)-1-(((S)-oxetan-2-yl)methyl)-1H-benzo[d]imidazole-6-carboxylic acid]
